Columns and labels:
[1] = Taxol loading into worm micelle core (HPLC); format: physicochemical; settings: confirmed by HPLC
Description: In vitro assays. Drug delivery with liposomes entails loading either hydrophilic drugs or nucleic acids into the interior of the assembly (Wagner et al., Proc. Nat'l Acad. Sci. USA 89:7934 (1992)), or hydrophobic drugs into the lipid bilayer (Wenk et al., J. Pharm. Sci. 85:228 (1996)). The worm micelles in this study were loaded with the drug taxol, one of a variety of hydrophobic drugs available for killing tumor cells. Taxol binds to, and toxically stabilizes, microtubules at 1-10 nM (Gloushankova et al., Proc. Nat'l. Acad. Sci. USA 91:8597 (1994)).

microtubules = settings: cited from earlier work

SMILES: CC(=O)O[C@H]1C(=O)[C@@]2(C)[C@H]([C@H](OC(=O)c3ccccc3)[C@]3(O)C[C@H](OC(=O)[C@H](O)[C@@H](NC(=O)c4ccccc4)c4ccccc4)C(C)=C1C3(C)C)[C@]1(OC(C)=O)CO[C@@H]1C[C@@H]2O [taxol, paclitaxel]
- taxol partition into hydrophobic core [1]: one molecule of taxol partitions into the hydrophobic core per ten copolymers
- concentration that binds and toxically stabilizes microtubules (microtubules): 1 to 10 nM

Source: patent US20050180922A1, “Block co-polymer worm micelles and methods of use therefor” (priority 2004, published 2005)
